Data set [1] relates to HFF cells (human foreskin normal cells). As to the kind of experiment: Human cytotoxicity (MTT) assay. In kind it is cell-based. As to conditions: after 72 hours; for % Inh. HFF: Conc. 200 µM. As to the method:
(§1) This Example describes human cytotoxicity of individual SMs. […] Three cancer cell lines (NCI-H460 human non-small cell lung cancer, SF-268 human central nervous system glioma, and MCF-7 human breast cancer) were used that are routinely use as “sentinels” (if a compound is cytotoxic, then at least one of these are usually killed). HFF cells (human foreskin normal cells, not cancer cells) was also used as a “control”.
(§2) Tested concentrations of these SMs increased at 50, 100 uM, then at 200 uM (Table 7).

The subject of data set [2] is NCI-H460 human non-small cell lung cancer. As to the kind of experiment: Human cytotoxicity (MTT) assay. In kind it is cell-based. As to conditions: for % Inh. NCI-H460: Conc. 200 µM. The method, then: as §1, §2
Data set [3] concerns MCF-7 human breast cancer. Put plainly: Human cytotoxicity (MTT) assay. The format is cell-based. Conditions: for % Inh. MCF-7: after 72 hours, Conc. 200 µM. The method, then: as §1, §2
Data set [4] has as its system SF-268 human central nervous system glioma. Put plainly: Human cytotoxicity (MTT) assay. In kind it is cell-based. Conditions: for % Inh. SF-268: after 72 hours, Conc. 200 µM. The method, then:
as §1, §2

The next data set relates to Caenorhabditis elegans. As to the kind of experiment: whole plant or invertebrate. As to the method: (§3) Laboratory assays were carried out to assess the nematicidal activity of the above-mentioned secondary metabolites (SMs) on the infective stage (i.e. the one that infects the roots of plants) of: 1) the root-knot nematode, (M. incognita); and 2) the citrus nematode (T semipenetrans). The effect of these SMs on five beneficial soil nematode species microbivores and those involved in nutrient cycling) was also tested to make sure these compounds only affect plant parasites (only for individual SM experiments).
(§4) Five non-target nematode species includes:
(§5) two free-living bacterivores: Caenorhabditis elegans and Rhabditis blumi.
(§6) The susceptibility of test population to these SMs was assessed by constructing a dosage-mortality curve in which the dosage was plotted against the percentage mortality at a given period of time (FIGS. 1-3).
(§7) Concentration-response data for each concentration of single Photorhabdus-derived SMs and the mixtures were pooled and subjected to Probit regression analysis using the Polo Plus program (LeOra software, Petaluma, Calif.). The LC or EC values, along with corresponding 95% confidence intervals, were estimated for each single SM and SM mixture at each exposure time, depending on the experimental setting. Statistically significant differences in LC or EC values among SMs at a given exposure time period within or among nematode species were interpreted based on non-overlapping of 95% confidence intervals. For the toxicity data visualization, the relationship between percent mortality or temporary quiescence and concentration was described by a sigmoidal curve, which is fitted by the logistical function, using the statistical software package Sigmaplot for Windows, version 14.0 (Systat Software Inc., San Jose, Calif., USA).

Another data set relates to Rhabditis blumi. Put plainly: whole plant or invertebrate. As to the method:
as §3, §4, §5, §6, §7

The next data set deals with Steinernema carpocapsae. As to the kind of experiment: whole plant or invertebrate. As to the method:
as §3, §4
(§8) three entomopathogenic species: Steinernema carpocapsae, H bacteriophora, and H sonorensis.
as §6
Concentration-response data for each concentration of single Photorhabdus-derived SMs and the mixtures were pooled and subjected to Probit regression analysis using the Polo Plus program (LeOra software, Petaluma, Calif.). The LC or EC values, along with corresponding 95% confidence intervals, were estimated for each single SM and SM mixture at each exposure time, depending on the experimental setting. […]

For the next data set, the system named is H. bacteriophora. Put plainly: whole plant or invertebrate. As to conditions: Heterorhabditis bacteriophora, read-out: EC50 (effective concentration causing 50% reversible nematode paralysis, temporary quiescence). The method, then: as §3, §4, §8, §6, §7
Another data set concerns H. sonorensis. As to the kind of experiment: animal or person. As to conditions: read-out: EC50 (effective concentration causing 50% reversible nematode paralysis, temporary quiescence). The method, then: as §3, §4, §8, §6, §7
For the next data set, the system named is Meloidogyne incognita. As to the kind of experiment: In vitro nematicidal/nematistatic assay on the infective stage (J2 juveniles) of the root-knot nematode. As to conditions: for Concentration at which nematicidal activity was observed: observational data; for EC50 / LC50: Meloidogyne incognita. In kind it is in vivo. The method, then:
(§9) Time points for observations were at 24, 48, and 72 h after initial exposure of each SM against J2 juveniles of M. incognita and T. semipenetrans under in vitro conditions.
(§10) After assessments of individual SM toxicity, the combined toxic effects of these SMs was assayed in order to understand interaction between each SM. […] In addition, the additive index values were calculated and indicated in each Table.
(§11) When analyzing the results of combination effects of the SMs, the statistical method described by DeLorenzo and Serrano (2003) was used as follows: S=(Am/Ai)+(Bm/Bi). Where: S=sum of biological activity or total toxicant unit (TTU); Am=LC50 for compound A in the mixture; Ai=LC50 for compound A in the individual effect; Bm=LC50 for compound B in the mixture; Bi=LC50 for compound B in the individual effect. S values will be used to calculate an additive index. If S≤1.0, then the additive index=(1/S)−1.0.

Data set [5] has as its system Tylenchulus semipenetrans. As to the kind of experiment: In vitro nematicidal/nematistatic assay on the infective stage (J2 juveniles) of the citrus nematode. Conditions: for Concentration at which nematicidal activity was observed: observational data; for EC50 / LC50: Tylenchulus semipenetrans. The format is in vivo. As to the method:
as §9, §10, §11

Another data set in a line: in vitro. The method, then:
as §3, §4, §8, §6, §7

Setting [6] is: M. incognita, in vitro, 24 h exposure.
[7] abbreviates: read-out: LC50 (lethal concentration causing 50% nematode death), Table 5: individual compounds or compound mixtures, J2 juveniles of M. incognita, in vitro.
Where [8] appears, read: T. semipenetrans, in vitro, 24 h exposure.
[9] abbreviates: read-out: LC50 (lethal concentration causing 50% nematode death), Table 6: individual compounds or compound mixtures, J2 juveniles of T. semipenetrans, in vitro.

Values after ≈ are worked out from the molar mass of the structure shown. Where two headings read alike, the source gives them in different places. Marks after values point to notes of the source that are not given here. A value given as a limit tells only on which side of the number the result lay.

As for `COc1cccc2c1C(=O)c1c(O)c3c(c(O)c1C2=O)C[C@@](O)(C(=O)CO)C[C@@H]3O[C@H]1C[C@H](N)[C@H](O)[C@H](C)O1` [Doxorubicin, reference compound], the inhibition at 1 µM in data set [1] (Homo sapiens, HFF, Conc. 1 μM (+ control)) is 64.9%; in [2] (Homo sapiens, NCI-H460, MTT, after 72 hours, Conc. 1 μM (+ control), read-out: % Inh. NCI-H460), 97.2%; in data set [3] (Homo sapiens, MCF7, after 72 hours, Conc. 1 μM (+ control), read-out: % Inh. MCF-7), 64.1%; in data set [4] (Homo sapiens, SF-268, after 72 hours, Conc. 1 μM (+ control), read-out: % Inh. SF-268), 86.7%.
As for `c1ccc2[nH]ccc2c1` [ID, indole], the EC50 is 159 µg/mL (≈ 1360 µM) with Caenorhabditis elegans (Caenorhabditis elegans, read-out: EC50 (effective concentration causing 50% reversible nematode paralysis, temporary quiescence)); 37 µg/mL (≈ 316 µM) with Rhabditis blumi (Metarhabditis blumi, read-out: EC50 (effective concentration causing 50% reversible nematode paralysis, temporary quiescence)); greater than 400 µg/mL with Steinernema carpocapsae (Steinernema carpocapsae, read-out: EC50 (effective concentration causing 50% reversible nematode paralysis, temporary quiescence)); greater than 400 µg/mL in the data set on H. bacteriophora; greater than 400 µg/mL with H. sonorensis; 56 µg/mL in the data set on Meloidogyne incognita (read-out: EC50 (concentration required to immobilize 50% of nematode population), M. incognita). The EC50 turned out to be 56.3 µg/mL in the data set with Meloidogyne incognita (read-out: EC50 (effective concentration causing 50% reversible nematode paralysis, temporary quiescence), M. incognita, in vitro, 24 h exposure); 61.3 µg/mL in the data set with Meloidogyne incognita (J2 juveniles of M. incognita (RKN), 48 h exposure, read-out: EC50 (95% confidence interval), reversible paralysis); 76.3 µg/mL with Meloidogyne incognita (J2 juveniles of M. incognita (RKN), 72 h exposure, read-out: EC50 (95% confidence interval), reversible paralysis); 37 µg/mL in [5] (read-out: EC50 (concentration required to immobilize 50% of nematode population), T. semipenetrans); 37.1 µg/mL in data set [5] (read-out: EC50 (effective concentration causing 50% reversible nematode paralysis, temporary quiescence), T. semipenetrans, in vitro, 24 h exposure); 66.2 µg/mL in data set [5] (J2 juveniles of T. semipenetrans, 48 h exposure, read-out: EC50 (95% confidence interval), reversible paralysis). For the same molecule, the EC50 in data set [5] (J2 juveniles of T. semipenetrans, 72 h exposure, read-out: EC50 (95% confidence interval), reversible paralysis) worked out at 68.3 µg/mL. Moreover, the “% Inh. HFF” value in data set [1] was determined as 4.64%. In addition, the “% Inh. NCI-H460” value in data set [2] (MTT, after 72 hours) was determined as 30.5%. Besides, the “Toxicity against NCI-H460” value in data set [2] (at 200 uM) is 30.5%. For the same molecule, the “% Inh. MCF-7” value in data set [3] was 5.31%. Further, the “% Inh. SF-268” value in [4] is 20.2%. The “Concentration at which nematistatic activity (reversible quiescence) was induced” value with Meloidogyne incognita (M. incognita) was greater than 40 µg/mL; in data set [5] (T. semipenetrans), greater than 10 µg/mL. Besides, the entries for the “EC50 (effective concentration causing 50% reversible nematode paralysis, temporary quiescence)” value (with Meloidogyne incognita (setting [6]); in [5] (setting [8])) were 56.3 (52.9-59.6) μg mL^−1 and 37.1 (28.7-43.4) μg mL^−1, respectively. Further, the “Concentration at which nematicidal activity was observed” value (with Meloidogyne incognita (M. incognita); in data set [5] (T. semipenetrans)) was no less than 300 µg/mL throughout. Besides, the LC50 in the data set on Meloidogyne incognita (setting [7]) stood at 307 µg/mL; in the data set with Meloidogyne incognita (M. incognita, ID alone and SM mixtures, exposure time not given, read-out: LC50), 307 µg/mL; in [5] (setting [9]), 388 µg/mL; in data set [5] (T. semipenetrans, ID alone and SM mixtures, exposure time not given, read-out: LC50) it was 388 µg/mL.
`O=C(O)/C=C/c1ccccc1` [TCA, trans-cinnamic acid]: the “% Inh. HFF” value in data set [1] was 10.8%. The “% Inh. MCF-7” value in [3] came to 2.59%. Besides, the “% Inh. SF-268” value in [4] is 13.0%.
With `O=C(O)CC/C=C/c1ccccc1` [PPA, (4E)-5-phenylpent-4-enoic acid], the “LC50 (lethal concentration causing 50% nematode death)” value with Caenorhabditis elegans (C. elegans, in vitro) was 278 µg/mL (≈ 1580 µM); in the data set with Rhabditis blumi (R. blumi, in vitro), 346 µg/mL (≈ 1960 µM); in the data set with Steinernema carpocapsae (S. carpocapsae, in vitro), >400^e μg mL^−1; in the data set with Meloidogyne incognita (setting [6]) it was 44.4 (38.8-48.6) μg mL^−1; in data set [5] (setting [8]), 66.3 (50.7-73.4) μg mL^−1. In addition, the “% Inh. HFF” value in data set [1] is 22.6%. In addition, in data set [2] (MTT, after 72 hours), the “% Inh. NCI-H460” value came to 3.97%. Further, in data set [3], the “% Inh. MCF-7” value is recorded as −5.35%. Besides, in data set [4], the “% Inh. SF-268” value was 7.76%. Besides, the LC50 in the data set “in vitro” (H. bacteriophora) was greater than 400 µg/mL; in “in vitro” (H. sonorensis, whole H. sonorensis nematodes (non-target entomopathogenic)), greater than 400 µg/mL; in the data set with Meloidogyne incognita (read-out: LC50 (concentration required to kill 50% nematode population), M. incognita, 24 h of exposure) it was 44 µg/mL; in the data set on Meloidogyne incognita (read-out: LC50 (lethal concentration causing 50% nematode death), M. incognita, in vitro, 24 h exposure), 44.4 µg/mL; in the data set with Meloidogyne incognita (setting [7]), 44.4 µg/mL; in the data set on Meloidogyne incognita (J2 juveniles of M. incognita (RKN), 48 h exposure, read-out: LC50 (95% confidence interval)), 42 µg/mL. In addition, the LC50 was 38.9 µg/mL with Meloidogyne incognita (J2 juveniles of M. incognita (RKN), 72 h exposure, read-out: LC50 (95% confidence interval)); 66 µg/mL in data set [5] (read-out: LC50 (concentration required to kill 50% nematode population), T. semipenetrans, 24 h of exposure); 66.3 µg/mL in data set [5] (read-out: LC50 (lethal concentration causing 50% nematode death), T. semipenetrans, in vitro, 24 h exposure); 66.3 µg/mL in data set [5] (setting [9]); 59.8 µg/mL in data set [5] (J2 juveniles of T. semipenetrans (CN), 48 h exposure, read-out: LC50 (95% confidence interval)); 42.2 µg/mL in data set [5] (J2 juveniles of T. semipenetrans (CN), 72 h exposure, read-out: LC50 (95% confidence interval)). Further, the “Concentration at which nematicidal activity was observed” value (in the data set with Meloidogyne incognita (M. incognita); in [5] (T. semipenetrans)) was no less than 40 µg/mL throughout.
